Data taken from US20250099450A1, “PHARMACEUTICAL COMBINATION FOR TREATING TUMORS AND USE THEREOF” (INXMED (NANJING) CO., LTD, priority 2022, published 2025).

What was measured:
[1] = system: melanoma cells A375; experiment: Cell killing (CCK8) of Cobimetinib against A375 after FAK silencing; type: cell-based; settings: with FAK silencing (FAK siRNA) vs control siRNA, 72 h
Method: In the in vitro assay, different concentrations of Cobimetinib were given under the condition of silencing the FAK gene. In A375 cells, the cell killing curve was obtained and the IC50 value was determined. The cytotoxic effect of Cobimetinib in the control group and the FAK siRNA group was compared to explore the effect of the FAK target on the cytotoxicity of Cobimetinib. The cell killing curve of Cobimetinib at different concentrations in melanoma cells A375 under the condition of FAK gene silencing was detected in the assay and the IC50 value was determined. A 96-well cell plate was seeded with 5000 A375 cells/well, and two groups were transfected with control siRNA or FAK siRNA respectively. Cobimetinib was added 24 hours after the transfection. The highest concentration was 1 μM. A total of 6 concentrations were set for 3-fold gradient dilution. The lowest concentration of Cobimetinib was 4.115 nM. After the drug and cells were incubated for 72 hours, 10 μl CCK8 solution was added to each well and incubated at 37 degrees in a 5% carbon dioxide incubator for 2 hours. A microplate reader with the absorbance wavelength set to 450 nm was used for reading. The values read were compared to the DMSO control group and plotted using Graphpad 8.0.

[2] = system: endoplasmic reticulum stress-related proteins GRP78 and Phospho-eIF2α (Ser51) in A375 cells; experiment: Endoplasmic reticulum stress protein expression in A375 after FAK silencing plus Cobimetinib; type: cell-based; settings: FAK siRNA 50 nM, then Cobimetinib 6 hours
Method: A375 cells were transfected with control siRNA or FAK siRNA at a final concentration of 50 nM. After 24 hours of transfection, different concentrations of Cobimetinib were given for 6 hours. The protein expression levels of FAK and endoplasmic reticulum stress-related proteins GRP78 and Phospho-eIF2α (phosphorylated-Phospho-eIF2α) (Ser51) were detected.

[3] = system: Calreticulin (ICD target) in A375 cells; experiment: Calreticulin immunofluorescence in A375 after FAK silencing plus Cobimetinib; type: cell-based; settings: FAK siRNA 50 nM, then 10 nM Cobimetinib 48 hours
Method: A375 cells were transfected with control siRNA or FAK siRNA at a final concentration of 50 nM. After 24 hours, A375 cells were treated with 10 nM Cobimetinib for 48 hours and then calreticulin was detected by immunofluorescence.

[4] = system: CT-26 mouse colorectal cancer cell subcutaneous allograft tumor; experiment: In vivo antitumor efficacy, CT-26 subcutaneous allograft tumor model (Example 3); parameters: species or system BALB/c mice; TGI (tumor growth inhibition rate): dose or concentration left out as unconfirmed; settings: for TGI (tumor growth inhibition rate) / Tumor volume on day 15: 15th day after group administration; for TGI (tumor growth inhibition rate): vs control group; for Tumor volume on day 15: Cobimetinib 7.5 mg/kg ip TIW, IN10018 12.5 mg/kg po QD, PDL1 antibody 5 mg/kg ip BIW, mean ± standard error
Description: Mice: Female BALB/c mice aged 6-8 weeks were purchased from Beijing Weitong Lihua Laboratory Animal Co., Ltd. The assay began after the animals arrived and were adapted to the experimental environment. The animals were kept in IVC (independent ventilation system) cages (6 per cage) in an SPF-level animal room. All cages, bedding and drinking water must be sterilized before use. All experimenters should wear protective clothing and latex gloves when operating in the animal room. The animal information cards for each cage should indicate the number of animals in the cage, gender, strain, receipt date, dosing regimen, assay number, group and start date of the assay. Cages, feed and drinking water were changed twice a week. The breeding environment and lighting conditions are as follows:
5% CO2 incubator. Two to three times a week, routine digestion and subculture were performed with trypsin-EDTA. When the cells were in the exponential growth phase and the saturation was 80%-90%, the cells were harvested, counted, and inoculated.
0.1 mL of cell suspension containing 3×10^5 cells was subcutaneously inoculated on the right back of each mouse. When the tumor volume reached ˜58 mm^3 (10 days after cell inoculation), the mice were randomly divided into groups for drug administration according to the tumor volume.
The diameter of tumor was measured with vernier caliper, 3 times a week. The formula for calculating the tumor volume is: V=0.5×a×b^2, where a and b represent the long and short diameters of the tumor respectively.
Animals were considered dead when they died naturally or when the tumor volume was greater than 2500 mm^3. The survival rate and life cycle of the animals after administration were calculated based on this.
Statistical analysis was performed based on tumor volume and tumor weight at the end of the trial using Prism Graphpad software. Comparisons between multiple groups were analyzed using the Two-way ANOVA test, and P<0.05 was considered as having significant differences.
The survival rate of animals was analyzed using the Gehan-Breslow-Wilcoxon test, and P<0.05 was considered as having significant difference.

[5] = system: colon cancer CT-26 cell line; experiment: In vitro efficacy of IN10018 and HL-085 in CT26 cells (microscopy, flow cytometry); type: cell-based, mouse; settings: 48 hours, IN10018 5 μM, HL-085 1 μM
Method: CT26 cells were cultured with RPMI 1640 (Shanghai Yuanpei, Cat No.: L210KJ, Lot No.: F210916)+10% FBS (Gibco, Cat No.: 10099-141c, Lot No.: 2158737cp) and passaged twice. When the cells were in good condition, the culture plates were placed in 24-well plates. After 24 hours of cell spreading, four groups were set up. The first group was the control group, to which culture medium was added, the second group was IN10018 at a concentration of 5 μM, the third group was HL-085 at a concentration of 1 μM, and the fourth group was IN10018 (5 μM) combined with HL-085 (1 μM). The drugs were mixed and cultured at 37° C. in a 5% CO2 incubator for 48 hours.
After 48 hours of drug action, cells were observed under a microscope and photographed to confirm the cell killing effect. Then the cells were collected for flow analysis, and the cells were washed twice with flow buffer (PBS+2% FBS) and 0.5 μl AF647. Anti-calreticulin antibody (abeam) was added to each well and mixed. The mixture was incubated at 4° C. in the dark, flow buffer was added after 20 min of incubation, the annexin staining kit (Beyotime) was used and 195 μl […] was added. After pipetting and mixing with the cells, 5 μl Annexin-V-FITC antibody was added and gently mixed. Finally, 10 μl PI dye was added and mixed. […]

O=C(c1ccc(F)c(F)c1Nc1ccc(I)cc1F)N1CC(O)([C@@H]2CCCCN2)C1 [Cobimetinib]
cell killing effect of cobimetinib on melanoma cells A375 [1]: significantly enhance
endoplasmic reticulum stress of A375 [2]: Significantly Up-Regulated
exposure and release of the DAMPs marker calreticulin [3]: significantly enhance
TGI (tumor growth inhibition rate) [4]: 59.2%
Tumor volume on day 15 [4]: 1261.3±565.4 mm^3
Survival rate on Day 31 ([4]; 31st day after group administration, death = natural death or tumor volume > 2500 mm^3, Cobimetinib 7.5, IN10018 12.5, PDL1 antibody 5 mg/kg): 16.7%
Median survival time ([4]; up to the 31st day after group administration, Cobimetinib 7.5, IN10018 12.5, PDL1 antibody 5 mg/kg): 22 days

O=C(NOCCO)c1cc2scnc2c(F)c1Nc1ccc(I)cc1F [HL-085]
cell status / cell killing effect observed under a microscope [5]: poor

COc1cc(C(=O)NC2CCN(C)CC2)c(F)cc1Nc1ncc(C(F)(F)F)c(Oc2cccc3c2C(=O)N(C)C3)n1 [IN10018]
TGI (tumor growth inhibition rate) [4]: 19.9%
Tumor volume on day 15 [4]: 2418.8±436.5 mm^3
cell status / cell killing effect observed under a microscope [5]: better
